These results are taken from patent publication US7932262B2 (Novartis AG, priority 2006, dated 2011).

In one assay the test system is A2780 cells. Nature of the assay: Cell Proliferation Assay (Cell Titer Glo), A2780. It counts as cell-based. The note with it: Homo sapiens; cell proliferation, A2780 cells; read-out: CPEC50 A2780. The method in brief: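 Following a 3-day compound exposure (37° C., 5% CO2) of A2780 or PC3MM cells plated at 1000 per well, viability was measured by Cell Titer Glo luminescence in fresh medium, read 10 min after reagent addition.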
(ATP-based viability assays read luminescence as a measure of living cells.)

The target in the next assay is T1, PDK1 kinase (Homo sapiens, UniProt O15530).
T1 sequence (O15530 1-556): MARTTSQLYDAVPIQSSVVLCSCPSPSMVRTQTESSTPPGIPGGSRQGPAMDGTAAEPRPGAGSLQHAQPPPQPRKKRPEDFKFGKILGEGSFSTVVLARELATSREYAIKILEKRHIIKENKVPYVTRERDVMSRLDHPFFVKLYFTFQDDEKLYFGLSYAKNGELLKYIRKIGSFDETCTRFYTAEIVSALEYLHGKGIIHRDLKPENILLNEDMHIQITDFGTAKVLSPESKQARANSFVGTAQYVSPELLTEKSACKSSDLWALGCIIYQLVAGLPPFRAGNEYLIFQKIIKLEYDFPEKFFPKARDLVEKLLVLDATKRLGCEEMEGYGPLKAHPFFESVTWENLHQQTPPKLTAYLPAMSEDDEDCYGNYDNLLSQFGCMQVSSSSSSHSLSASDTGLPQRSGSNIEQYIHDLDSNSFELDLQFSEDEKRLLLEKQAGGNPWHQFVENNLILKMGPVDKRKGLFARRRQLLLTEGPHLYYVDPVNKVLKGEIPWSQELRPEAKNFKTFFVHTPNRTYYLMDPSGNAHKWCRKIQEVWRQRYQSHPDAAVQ
The experiment in a line: PDK1 Kinase Alpha Screen Assay. It counts as biochemical. The note with it: PDK1 Kinase Alpha Screen Assay; read-out: PDK1 IC50. The method in brief: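 Detection used AlphaScreen: streptavidin donor and protein A acceptor beads (25 μg/ml each) bridged by a phospho-(Ser/Thr) PKA substrate antibody binding phosphorylated peptide. Reaction: biotin-PDK1-4 peptide (50 nM), ATP (10 uM), PDK1 in pH 7.5 Tris/MgCl2/DTT buffer, 3-18 hours, EDTA-stopped.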

The next assay concerns PC3MM cells. Nature of the assay: Cell Proliferation Assay (Cell Titer Glo), PC3MM. It counts as cell-based. The note with it: cell proliferation, PC3MM cells; read-out: CPEC50 PC3MM. The protocol: IV. Cell Proliferation Assay Protocol:
A2780, PC-3, or PC3MM cells were seeded at 1000 cells/well in 100 μL/well (10.000 cells/mL) growth media in 96-well plates. Cells were allowed to adhere to the bottom of plates for 3-5 hours in a 37° C. 5% CO2 incubator. Compounds were dissolved in DMSO and then transferred to the cell plates. The cells were incubated with the compounds for 3 days in a 37° C. 5% CO2 incubator. The growth medium containing the compounds was then removed from the cells and fresh medium was added, followed by 100 μL of Cell Titer Glo assay reagent (Promega). This mixture was shaken for 1 minute and then incubated without shaking for 10 minutes. Activity determinations for the compounds were made by detection on a Trilux Instrument.

Usually IC50 stands for the concentration that gives 50% inhibition. `CC(=O)c1ccc(-c2cccc3cnc(Nc4ccc(S(N)(=O)=O)cc4)nc23)cc1` [Compound 731, 4-(8-(4-acetylphenyl)quinazolin-2-ylamino)benzenesulfonamide]: the EC50 with A2780 cells was 5 to 10 µM; in the assay with PC3MM cells, less than 5 µM. Moreover, on PDK1 kinase, the IC50 was less than 5 µM.
As for `NS(=O)(=O)c1ccc(Nc2ncc3cccc(-c4ccc(-c5ccn[nH]5)cc4)c3n2)cc1` [Compound 732, 4-(8-(4-(1H-pyrazol-5-yl)phenyl)quinazolin-2-ylamino)benzenesulfonamide], the EC50 in the assay on A2780 cells and in the assay with PC3MM cells was less than 5 µM in each case. Further, the IC50 at PDK1 kinase was less than 5 µM.
For `CN1CCCC(Oc2cccc3cnc(Nc4ccc(S(N)(=O)=O)cc4)nc23)C1` (stereo not drawn) [Compound 733, 4-(8-(1-methylpiperidin-3-yloxy)quinazolin-2-ylamino)benzenesulfonamide], the EC50 with A2780 cells and with PC3MM cells was less than 5 µM throughout. Moreover, the IC50 on PDK1 kinase was less than 5 µM.
As to `NC(=O)c1cccc(-c2cccc3cnc(Nc4ccc(S(N)(=O)=O)cc4)nc23)c1` [Compound 734, 3-(2-(4-sulfamoylphenylamino)quinazolin-8-yl)benzamide], the EC50 in the assay on A2780 cells and in the assay on PC3MM cells was less than 5 µM throughout. Also, on PDK1 kinase, the half-maximal inhibitory concentration (IC50) was less than 5 µM.
For the compound `CS(=O)(=O)c1cccc(-c2cccc3cnc(Nc4ccc(S(N)(=O)=O)cc4)nc23)c1` [Compound 735, 4-(8-(3-(methysulfonyl)phenyl)quinazolin-2-ylamino)benzenesulfonamide], the EC50 with A2780 cells and with PC3MM cells was less than 5 µM throughout. In addition, the IC50 at PDK1 kinase is less than 5 µM.
For the compound `CS(=O)(=O)Nc1cccc(-c2cccc3cnc(Nc4ccc(S(N)(=O)=O)cc4)nc23)c1` [Compound 736, 4-(8-(3-(methylsulfonamido)phenyl)quinazolin-2-ylamino)benzenesulfonamide], the EC50 in the assay on A2780 cells and with PC3MM cells was less than 5 µM in each case. The IC50 on PDK1 kinase is less than 5 µM.
Take `CC(=O)Nc1cccc(-c2cccc3cnc(Nc4ccc(S(N)(=O)=O)cc4)nc23)c1` [Compound 737, N-(3-(2-(4-sulfamoylphenylamino)quinazolin-8-yl)phenyl)acetamide]: the EC50 in the assay with A2780 cells and in the assay with PC3MM cells was less than 5 µM in each case. For the same compound, the half-inhibitory concentration (IC50) on PDK1 kinase was less than 5 µM.
`NS(=O)(=O)c1ccc(Nc2ncc3cccc(-c4cccc(S(N)(=O)=O)c4)c3n2)cc1` [Compound 738, 3-(2-(4-sulfamoylphenylamino)quinazolin-8-yl)benzenesulfonamide]: the EC50 with A2780 cells and in the assay with PC3MM cells was less than 5 µM throughout. Besides, on PDK1 kinase, the half-inhibitory concentration (IC50) was less than 5 µM.
In the case of `NS(=O)(=O)c1ccc(Nc2ncc3cccc(-c4ccc5c(c4)OCO5)c3n2)cc1` [Compound 739, 4-(8-(benzo[d][1,3]dioxol-5-yl)quinazolin-2-ylamino)benzenesulfonamide], the EC50 in the assay on A2780 cells and in the assay on PC3MM cells was less than 5 µM each time. Also, the half-maximal inhibitory concentration (IC50) at PDK1 kinase is less than 5 µM.
Consider `NC(=O)c1ccc(-c2cccc3cnc(Nc4ccc(S(N)(=O)=O)cc4)nc23)cc1` [Compound 740, 4-(2-(4-sulfamoylphenylamino)quinazolin-8-yl)benzamide], for which the figures for the EC50 with A2780 cells and in the assay on PC3MM cells were 5 to 10 µM and less than 5 µM, respectively. The IC50 on PDK1 kinase was less than 5 µM.
With `NS(=O)(=O)c1ccc(Nc2ncc3cccc(-c4ccnc(F)c4)c3n2)cc1` [Compound 741, 4-(8-(2-fluoropyridin-4-yl)quinazolin-2-ylamino)benzenesulfonamide], the EC50 in the assay on A2780 cells and in the assay with PC3MM cells was less than 5 µM in each case. The IC50 on PDK1 kinase was less than 5 µM.
On to `NS(=O)(=O)c1ccc(Nc2ncc3cccc(-c4cccnc4)c3n2)cc1` [Compound 742, 4-(8-(pyridin-3-yl)quinazolin-2-ylamino)benzenesulfonamide], for which the values for the EC50 with A2780 cells and with PC3MM cells were 5 to 10 µM and less than 5 µM, respectively. For the same compound, the IC50 on PDK1 kinase was less than 5 µM.
Regarding `NS(=O)(=O)c1ccc(Nc2ncc3cccc(-c4ccncc4)c3n2)cc1` [Compound 743, 4-(8-(pyridin-4-yl)quinazolin-2-ylamino)benzenesufonamide], the EC50 was 5 to 10 µM in the assay on A2780 cells and less than 5 µM in the assay on PC3MM cells. In addition, the IC50 on PDK1 kinase is less than 5 µM.
As to `COCCNc1cc(-c2cccc3cnc(Nc4ccc(S(N)(=O)=O)cc4)nc23)ccn1` [Compound 745, 4-(8-(2-(2-methoxyethylamino)pyridin-4-yl)quinazolin-2-ylamino)benzenesulfonamide], the EC50 with A2780 cells and in the assay with PC3MM cells was less than 5 µM throughout. Besides, at PDK1 kinase, the IC50 was less than 5 µM.
Take `CC(=O)NCCNc1cc(-c2cccc3cnc(Nc4ccc(S(N)(=O)=O)cc4)nc23)ccn1` [Compound 746, N-(2-(4-(2-(4-sulfamoylphenylamino)quinazolin-8-yl)pyridin-2-ylamino)ethyl)acetamide]: the EC50 with A2780 cells was 5 to 10 µM; in the assay on PC3MM cells it was less than 5 µM. In addition, the IC50 on PDK1 kinase was less than 5 µM.
In the case of `NS(=O)(=O)c1ccc(Nc2ncc3cccc(-c4ccnc(NCCN5CCCC5)c4)c3n2)cc1` [Compound 747, 4-(8-(2-(2-(pyrroIidin-1-yl)ethylamino)pyridin-4-yl)quinazolin-2-ylamino)benzenesulfonamide], the EC50 in the assay on A2780 cells and with PC3MM cells was less than 5 µM each time. On PDK1 kinase, the IC50 is less than 5 µM.
As to `NS(=O)(=O)c1ccc(Nc2ncc3cccc(-c4cnoc4)c3n2)cc1` [Compound 748, 4-(8-(isoxazol-4-yl)quinazolin-2-ylamino)benzenesulfonamide], the EC50 in the assay on A2780 cells and with PC3MM cells was less than 5 µM in each case. Moreover, the 50% inhibitory concentration (IC50) on PDK1 kinase is less than 5 µM.
As for `NS(=O)(=O)c1ccc(Nc2ncc3cccc(-c4cn[nH]c4)c3n2)cc1` [Compound 751, 4-(8-(1H-pyrazol-yl)quinazolin-2-ylamino)benzenesulfonamide], the EC50 in the assay on A2780 cells and in the assay with PC3MM cells was less than 5 µM in each case. In addition, at PDK1 kinase, the 50% inhibitory concentration (IC50) was less than 5 µM.
With `NS(=O)(=O)c1ccc(Nc2ncc3cccc(-c4ccnc(N5CCOCC5)c4)c3n2)cc1` [Compound 752, 4-(8-(2-morpholinopyridin-4-yl)quinazolin-2-ylamino)benzenesulfonamide], the EC50 with A2780 cells and with PC3MM cells was less than 5 µM in each case. The IC50 on PDK1 kinase was less than 5 µM.
For the compound `CN1CCN(c2cc(-c3cccc4cnc(Nc5ccc(S(N)(=O)=O)cc5)nc34)ccn2)CC1` [Compound 753, 4-(8-(2-(4-methylpiperazin-1-yl)pyridin-4-yl)quinazolin-2-ylamino)benzenesulfonamide], the EC50 in the assay on A2780 cells and with PC3MM cells was less than 5 µM in each case. In addition, the 50% inhibitory concentration (IC50) on PDK1 kinase is less than 5 µM.
For `NS(=O)(=O)c1ccc(Nc2ncc3cccc(-c4ccnc(N5CCS(=O)(=O)CC5)c4)c3n2)cc1` [Compound 754], the EC50 in the assay with A2780 cells and with PC3MM cells was less than 5 µM each time. At PDK1 kinase, the IC50 is less than 5 µM.
Regarding `NS(=O)(=O)c1ccc(Nc2ncc3cccc(-c4ccnc(N5CCNC(=O)C5)c4)c3n2)cc1` [Compound 755, 4-(8-(2-(3-oxopiperazin-1-yl)pyridin-4-yl)quinazolin-2-ylamino)benzenesulfonamide], the EC50 in the assay with A2780 cells and in the assay on PC3MM cells was less than 5 µM throughout. The IC50 on PDK1 kinase is less than 5 µM.
As to `Nc1cc(-c2cccc3cnc(Nc4ccc(S(N)(=O)=O)cc4)nc23)ccn1` [Compound 756, 4-(8-(2-aminopyridin-4-yl)quinazolin-2-ylamino)benzenesulfonamide], the EC50 in the assay with A2780 cells was 5 to 10 µM; with PC3MM cells it was less than 5 µM. Further, on PDK1 kinase, the IC50 was less than 5 µM.
